Test results as given in patent EP3856749B1, “WATER-SOLUBLE, NON-AGGREGATED SILICON PHTALGCYANINE COMPOUND HAVING IN VITRO ANTICANCER EFFECT AGAINST CANCER TYPES OF LUNG, LIVER, BREST AND MELANOMA” (Karadeniz Teknik Universitesi, priority 2018, dated 2020).

What was measured:
CT-DNA [1] = assay: Competitive EB binding experiment; details: EB (50 µM), CT-DNA (50 µM), pH 7.2
Description: It is observed in competitive EB binding studies of compounds how the wave length and absorbance, in which EB (50 µM) whose concentration is kept stable presents the maximum absorbance, vary with addition of CT-DNA (50 µM) and then with simultaneous addition of DNA and complex. This study is carried out in the buffer of 5 mM Tris-HCl/50 mM NaCl (pH 7.2).

[2] = tested on: melanoma (SK-Mel 128) cancer cell lines; assay: Cytotoxicity test (MTT), SK-Mel 128; type: cell-based, human; details: SK-MEL 128, 48 hours
Source text: (§1) Cytotoxic effects of test substances are testes by means of using human breast (BT-20), melanoma (SK-Mel 128), prostate (DU-145), liver (SNU-398) and lung (A549) cancer cell lines. Toxic effects of test substances on the healthy normal cells are studied on human fibroblast cells (HFC).
(§2) Cell suspension prepared from alpha-MEM having 10% FBS (Fetal Bovine Serum), fungizone and penicillin/streptomycin is distributed as 5×10^3 of cell in each well in the cell culture containers comprising 96 wells for the test. […] Cells are kept in a humid environment at 5% of CO2 at 37°C for 48 hours in the presence of the test substance, of which final densities are of 200-0.09 µg/mL. 10 µL from the MTT solution (3-[4,5-dimethyltioazol-2,5-diphenyltetrazolium bromide) prepared at a density of 5 mg/mL is added to each well so as to determine the cell generation rate at the end of incubation period. After culture containers are kept in the humid environment at 5% of CO2 at 37°C for 2 hours, the content is emptied and dimethyl sulphoxide (DMSO) is added in the value of 100 µL/well on cells so as to solubilize intracellular formazan crystals. After incubation for 30 minutes, the color intensity is measured in the wave length of 570/620 by means of ELISA Microplate Reader (Tecan, Sunrise).

[3] = tested on: supercoiled pBR322 plasmid DNA; assay: Nuclease activity under irradiation (photonuclease); type: biochemical; details: for nuclease activity under irradiation: light for 15 minutes, 700 nm filter, increasing concentrations
Source text: (§3) Cleavage activities of supercoiled pBR322 plasmid DNA of the compounds are observed by means of using agarose-gel electrophoresis. When the supercoiled is exposed to pBR322 plasmid DNA electrophoresis, it is observed that the supercoiled form (Form I) migrates in the swiftest manner. In case of a cut occurred on a single chain, the supercoiled form creates a nicked form (Form II) moving in the slowest manner. In case both chains are cut, the linear form (Form III) migrating between Form I and Form II.
It is used General Electric quartz lamb of 300 watts and optical filter of 700 nm for compounds illustrated as Formula I and II to light in the proper wave length so as to observe that the supercoiled pBR322 plasmid DNA is cleavage by the compounds and so as to evaluate usability potentials of the compounds in the photo-dynamic therapy. In this study, total volume of reaction mixture contained 50 mM Tris-HCl (pH 7.0), super-coiled pBR322 plasmid DNA (250 ng), and increasing concentrations of compounds. Afterwards, well contents are exposed to light for 15 minutes. At the end of this period, after mixtures are incubated in darkness at 37 °C for an hour, reactions are stopped by means of above-mentioned methods and cut products are observed on the agarose gel under UV light.

[4] = tested on: lung (A549) cancer cell lines; assay: Cytotoxicity test (MTT), A549; type: cell-based, human; details: A549, 48 hours
Source text: as §1, §2

pBR322 plasmid DNA [5] = assay: Oxidative nuclease activity; type: biochemical; details: with oxidative agent (H2O2, AA, ME) under irradiation
Description: Auxiliary reagents are added to H2O2, AA, ME medium so as to examine oxidative cleavage activities of the compounds.
In this study, pBR322 plasmid DNA is formed of buffer solution (50 mM Tris-HCl (pH 7)), auxiliary reagents and increasing concentrations of compounds, such that well contents are of 10 µL. The oxidative nuclease activity studies were performed under light irradiation. At the end of this period, after mixtures are incubated in darkness at 37 °C for an hour, reaction is stopped by means of above-mentioned methods and cleavage products are observed on the agarose gel under UV light.
Subsequent to the determination of hydrolytic nuclease activities of the compounds 7a and 3a, cleavage reactions are carried out by way of adding hydrogen peroxide (H2O2) (0.4 M), ascorbic acid (AA) (2.5 mM) and mercaptoethanol (ME) (0.4 M) so as to examine its oxidative cleavage capabilities with/without irradiation and the related results are given in Figure 4.

topoisomerase I enzyme = target: T1, topoisomerase I enzyme (Homo sapiens, UniProt P11387); assay: Topoisomerase I inhibition (relaxation method); type: biochemical; details: 1 U Topo I, pBR322 plasmid DNA; 7a 12.5-37.5 µM; 3a 12.5-25 µM
T1 sequence (P11387 1-765): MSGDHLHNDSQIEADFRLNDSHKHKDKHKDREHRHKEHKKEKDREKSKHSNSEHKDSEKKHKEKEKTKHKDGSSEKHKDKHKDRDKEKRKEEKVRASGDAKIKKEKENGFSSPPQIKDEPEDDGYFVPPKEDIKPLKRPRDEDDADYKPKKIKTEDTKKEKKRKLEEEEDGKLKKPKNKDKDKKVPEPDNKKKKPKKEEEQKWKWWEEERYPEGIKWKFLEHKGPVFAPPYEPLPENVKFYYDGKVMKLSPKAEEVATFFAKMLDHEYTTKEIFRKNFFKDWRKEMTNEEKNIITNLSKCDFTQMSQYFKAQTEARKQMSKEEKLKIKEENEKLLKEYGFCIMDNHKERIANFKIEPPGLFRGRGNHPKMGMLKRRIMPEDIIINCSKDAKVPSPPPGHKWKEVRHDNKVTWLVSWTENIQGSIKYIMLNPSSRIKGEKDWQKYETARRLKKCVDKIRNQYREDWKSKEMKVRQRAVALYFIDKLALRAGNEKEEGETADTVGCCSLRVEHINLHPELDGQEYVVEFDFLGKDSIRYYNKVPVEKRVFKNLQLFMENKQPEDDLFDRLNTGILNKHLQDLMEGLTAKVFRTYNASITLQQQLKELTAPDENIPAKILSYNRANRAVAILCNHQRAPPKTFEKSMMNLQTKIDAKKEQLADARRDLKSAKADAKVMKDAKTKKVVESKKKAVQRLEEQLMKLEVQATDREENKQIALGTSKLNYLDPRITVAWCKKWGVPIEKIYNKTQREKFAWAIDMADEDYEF
Description: After incubation process, samples are loaded to 0.8 % of agarose gel, exposed to electrophoresis in the running buffer by applying 40 volt of current for 3 hours and forms obtained are observed on the agarose gel under UV light.

topoisomerase II enzyme = assay: Topoisomerase II inhibition (relaxation method); type: biochemical; details: 1 U Topo II, pBR322 plasmid DNA; 7a 12.5-37.5 µM; doxorubicin as standard
Description: After incubation process, samples are loaded to 0.8 % of agarose gel, exposed to electrophoresis in the running buffer by applying 40 volts of current for 3 hours and forms obtained are observed on the agarose gel under UV light.

CT-DNA [6] = assay: UV-Vis absorption titration; type: binding; details: in the presence of CT-DNA; 5 mM Tris-HCl/50 mM NaCl (pH 7.2)
Description: Stock solutions of compounds are obtained by means of being solved in water and stored in a room temperature in darkness. Stock solutions of CT-DNA are prepared in 5 mM Tris-HCl buffer of 7.2 pH with 50 mM NaCl and stored at 4 °C for three days. At the end of this period, absorbance rates of 260 and 280 nm are calculated so as to determine rate of DNA impurity. […] Concentration of DNA is measured and calculated at 260 nm by using molar excitation coefficient of (ε) 6600 M^-1cm^-1. All studies with the interaction between compounds and CT-DNA are carried out in 5 mM Tris-HCl/50 mM NaCl (pH 7.2) by keeping stock solutions prepared in water at the stable concentration and changing CT-DNA concentration. While carrying out this process, absorbance of CT-DNA is eliminated by adding CT-DNA in an equal amount on the blind solution.
Variations in the absorbance intensity are presented in percent. %H = [(A1−A2)/(A1)] × 100 [formula]
A1: Maximum absorbance of the compound; A2: Absorbance of the compound subsequent to addition of DNA.

[7] = tested on: breast (BT-20) cancer cell lines; assay: Cytotoxicity test (MTT), BT-20; type: cell-based, human; details: BT20, 48 hours
Source text: as §1, §2

[8] = tested on: supercoiled pBR322 plasmid DNA; assay: Hydrolytic nuclease activity (agarose gel electrophoresis); type: biochemical; details: 7a 6.25-50 µM; 3a 12.5-100 µM; without light
Source text: as §3
Total volume of reaction mixture contained 50 mM Tris-HCl (pH 7.0), supercoiled pBR322 plasmid DNA (250 ng), and different concentrations of compound. While the well content is loaded to 0.8 percent of agarose gel (comprising 0.25 µg/mL EB), gel loading dye also added and loaded to the gel. After addition of running buffer, it is exposed to electrophoresis by applying a current of 100 volt for 90 minutes.

[9] = tested on: liver (SNU-398) cancer cell lines; assay: Cytotoxicity test (MTT), SNU-398; type: cell-based, human; details: SNU-398, 48 hours
Source text: as §1, §2

[10] = tested on: prostate (DU-145) cancer cell lines; assay: Cytotoxicity test (MTT), DU-145; type: cell-based, human; details: DU-145, 48 hours
Source text: as §1, §2

CT-DNA [11] = assay: Determination of DNA melting temperature; type: binding; details: absorbance at 260 nm; CT-DNA alone 75.57 °C
Description: Studies pertaining to determination of DNA melting temperature is carried out by means of Cary 100 Bio UV-Visible Spectrophotometer with Varian Cary Temperature Controller unit.
(§4) The absorbance is measured at 260 nm at every 0.5 °C in the range of 60-90 °C by increasing temperature of the cell comprising the basin by 1 °C every minute by means of employing thermal melting program. Values Tm are automatically calculated by the device from t(°C)-Absorbance curve of CT-DNA drawn in the presence and absence of the compound depending on its absorbance in 260 nm.
as §4, with “program of DNA melting temperature of the compound 3a.” for “program.”, “3a” for “the compound”, “nm. While the melting temperature of CT-DNA is at 75.57 °C, the melting temperature of the compounds CT-DNA + 3a is at 81.82 °C. An increase at the melting temperatures strengthens the potential that the compounds becomes an intercalative agents.” for “nm.”

pBR322 plasmid DNA [12] = assay: Determination of reactive oxygen types in photonuclease activity; type: biochemical; details: 3a (50 µM), stimulation with light
Description: Inhibition tests are performed in the presence of standard radical scavengers so as to determine active oxygen types effective on its cleavage in the presence of light on pBR322 plasmid DNA of complexes. For that purpose, it used ethanol (EtOH), methanol (MeOH) and dimethyl sulphoxide (DMSO) as hydroxyl radical scavenger; sodium azide and L-histidine as singlet oxygen scavenger; SOD as superoxide radical scavenger, EDTA as chelating agent and catalase as hydrogen peroxide adsorbent. It is also observed whether or not results obtained by using different types scavenging the same type of radicals support each other. Different reaction mixtures are formed by means of adding pBR322 plasmid DNA and complex in the efficient concentration and any one of above mentioned standard radical scavengers in variable concentrations into 50 mM Tris-HCl buffer. Subsequent to incubation of different reaction mixture formed at 37°C for an hour, it comprises the process of examining and monitoring these products. […]

[13] = tested on: cervical cancer cell line (HeLa); details: cited from earlier work

Compound | competitive EB binding (CT-DNA [1]) | CC50 [2] [nM] | nuclease activity under irradiation [3] | CC50 [4] [nM] | oxidative cleavage activity (pBR322 plasmid DNA [5]) | topoisomerase I inhibition effect (topoisomerase I enzyme) | topoisomerase II inhibition effect (topoisomerase II enzyme) | hypochromism (CT-DNA [6]) [%] | red-shift (CT-DNA [6]) [nm] | CC50 [7] [nM] | hydrolytic nuclease activity [8] | CC50 [9] [nM] | CC50 [10] [nM] | nuclease activity under irradiation at 100 µM ([3]; in the presence of light, concentration of 100 µM) | melting temperature of CT-DNA + compound (CT-DNA [11]) [°C] | effect of singlet oxygen scavengers NaN3 and L-Histidine on cleavage (pBR322 plasmid DNA [12]) | cell survival (photocytotoxicity) [13] [%]
bis(3,5-bis{3-[3-(diethylmethylamino)phenoxy]propoxy}phenyl)methoxy)phthalocyaninato silicon (IV) Iodide [7a] | compete with EB so as to bind with CT-DNA | 1130 | exhibits the nuclease activity depending on the concentration | 1180 | significantly high cleavage activity | supercoiled form rate increases | Effective results are observed compared to doxorubicin | 43.64 | 6 | 1440 | observed for the compound 7a depending on the concentration | 490 | 2990 |  |  |  | 
bis(3,5-bis{3-[3-trimethylamino)phenoxy]propoxy}phenyl)methoxy)phthalocyaninato silicon (IV) Iodide [3a] | compete with EB so as to bind with CT-DNA | 1470 | exhibits the nuclease activity depending on the concentration | 2240 |  | supercoiled form rate increases |  | 25.40 | 6 | 3960 | observed for the compound 3a depending on the concentration | 860 | 4630 | destroys pBR322 plasmid DNA completely | 81.82 | prevent the cleavage | 
c1ccc(C(O[Si]2(OC(c3ccccc3)(c3ccccc3)c3ccncc3)n3c4c5ccccc5c3N=C3N=C(N=c5c6ccccc6c(n52)=NC2=NC(=N4)c4ccccc42)c2ccccc23)(c2ccccc2)c2ccncc2)cc1 [compound 3, axially di-(alpha,alpha-diphenyl-4-pyridylmethoxy) silicon(IV) phthalocyanine] |  |  |  |  |  |  |  |  |  |  |  |  |  |  |  |  | 17
